From patent publication US7989420B2, “Smooth muscle relaxation” (New York Medical College, priority 2006, dated 2011)
pKd: −log10 of the molar value.

Tests used:
[1] = tested on: bovine pulmonary arteries (BPA); experiment: Heme content of BPA homogenates (QuantiChrom heme assay); format: cell-based; details: organ culture with 100 μM ALA and/or 100 μM Fe
Description: Heme was quantified in BPA homogenates using a QuantiChrom heme assay kit purchased from BioAssay Systems, and changes in absorbance were measured in a BIOTEK scanning microplate spectrophotometer. Briefly, segments were homogenized in 20 mM MOPS+sucrose buffer and diluted to approximately 5 mg protein/ml. Homogenates were centrifuged at 2000×g for 5 min, and 50 μl of supernatant obtained were assayed for their heme content based on the manufacture's instructions, employing measurements of changes in absorbance at 400 nm. The protein content of the supernatant was measured with Biorad protein assay kit, and tissue heme levels were reported as nanomoles/mg protein.

[2] = biological target: T1, sGC (Bos taurus, UniProt P16068); experiment: sGC activity in BPA homogenates (cGMP by ELISA); format: biochemical, bovine; design: Guanylate cyclase activity of homogenates of BPA was measured by enzyme immunoassay; from tissue; host or cells: BPA (pulmonary artery rings, organ cultured) homogenate; details: organ culture with 100 μM ALA and/or 100 μM Fe
T1 sequence (P16068 1-619): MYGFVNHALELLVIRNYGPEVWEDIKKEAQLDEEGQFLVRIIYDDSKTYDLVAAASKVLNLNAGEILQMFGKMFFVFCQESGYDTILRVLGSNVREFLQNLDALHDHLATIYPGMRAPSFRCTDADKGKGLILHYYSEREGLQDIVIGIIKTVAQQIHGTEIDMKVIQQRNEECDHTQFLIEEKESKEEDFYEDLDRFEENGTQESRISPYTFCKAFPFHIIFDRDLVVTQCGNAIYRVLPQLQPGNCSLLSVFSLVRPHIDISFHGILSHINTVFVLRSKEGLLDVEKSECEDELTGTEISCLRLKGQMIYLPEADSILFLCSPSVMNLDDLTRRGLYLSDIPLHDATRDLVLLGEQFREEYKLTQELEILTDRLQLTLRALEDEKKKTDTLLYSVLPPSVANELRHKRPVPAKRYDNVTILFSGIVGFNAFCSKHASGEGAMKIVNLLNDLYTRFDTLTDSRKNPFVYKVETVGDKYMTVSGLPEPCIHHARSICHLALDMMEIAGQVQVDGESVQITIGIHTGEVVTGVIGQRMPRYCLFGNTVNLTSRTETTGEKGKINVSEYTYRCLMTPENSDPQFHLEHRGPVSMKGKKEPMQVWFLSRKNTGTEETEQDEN
T1 sequence (P19687 1-691 partner): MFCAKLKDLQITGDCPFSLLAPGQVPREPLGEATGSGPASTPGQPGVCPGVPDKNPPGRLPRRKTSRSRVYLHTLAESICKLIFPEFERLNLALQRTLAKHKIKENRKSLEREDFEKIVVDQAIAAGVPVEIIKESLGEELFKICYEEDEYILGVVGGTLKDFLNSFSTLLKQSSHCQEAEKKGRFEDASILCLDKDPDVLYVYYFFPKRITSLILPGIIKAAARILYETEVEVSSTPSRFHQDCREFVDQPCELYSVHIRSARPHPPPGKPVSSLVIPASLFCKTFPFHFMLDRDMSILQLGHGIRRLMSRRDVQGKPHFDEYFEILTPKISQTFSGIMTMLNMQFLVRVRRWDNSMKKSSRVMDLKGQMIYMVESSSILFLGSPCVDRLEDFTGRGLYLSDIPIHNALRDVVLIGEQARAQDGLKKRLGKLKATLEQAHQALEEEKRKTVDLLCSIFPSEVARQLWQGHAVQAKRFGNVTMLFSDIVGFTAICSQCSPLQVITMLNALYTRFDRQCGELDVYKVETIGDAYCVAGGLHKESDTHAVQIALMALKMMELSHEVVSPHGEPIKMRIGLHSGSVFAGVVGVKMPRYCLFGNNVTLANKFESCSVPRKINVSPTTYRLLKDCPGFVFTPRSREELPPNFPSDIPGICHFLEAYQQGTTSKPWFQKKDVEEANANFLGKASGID
Description: Guanylate cyclase activity of homogenates of BPA was measured by enzyme immunoassay of the amounts of cGMP generated. Briefly, BPA were pulverized in liquid nitrogen and homogenized in MOPS buffer 1:3 wt to buffer ratio at 5° C. Reaction mixture (0.2 ml final volume) contained 20 mM MOPS-KOH (pH 7.4), 0.1 mM GTP, 2 mM MgCl2, 0.3 mM of the phosphodiesterase inhibitor 3-Isobutyl-1-methylxanthine, a GTP-regenerating system consisting of 10 mM phosphocreatine and 150 U/ml creatine phosphokinase, and 0.1 ml of homogenate (11, 15), and test agents, as indicated. Assays of sGC activity were initiated by the addition of BPA homogenate. Incubations were conducted for 10 min at 37° C., and they were terminated by the addition of 0.1 ml of preheated 12 mM EDTA. This was followed by boiling the assay mixtures for 10 min and a subsequent addition of 5% trichloroacetic acid. The precipitate was removed by centrifugation and the supernatant was washed three times with water-saturated diethyl ether. Residual ether was removed by incubation at 70° C. for 5 minutes, prior to measurement of cGMP by ELISA (Cayman), as described in the manual supplied by manufacturer of the ELISA kit.

[3] = tested on: bovine pulmonary arteries (BPA); experiment: Isometric force generation to serotonin (5-HT) in organ cultured BPA rings; format: cell-based
Description: (§1) Organoid Culture Isolated Arteries for Heme Modulation. Intralobar BPA were isolated from slaughterhouse-derived bovine calf lungs, cleaned from surrounding tissue, and placed in 37° C. Dulbecco's Modified Eagle Medium (DMEM) containing 10% fetal bovine serum, penicillin, streptomycin, and fungizone (complete media). The arteries were isolated and cut into rings ˜2 mm in diameter and width, and the endothelium was removed by gentle rubbing of the lumen. Various compounds (i.e. ALA, FeSO4(Fe), deferoxamine) were added as described in the Results to various experimental groups, and these arteries were organ cultured overnight for 24 h in complete media in a 37° C.-5% CO2 incubator. Preliminary experiments on the time course for detection protoporphyrin IX accumulation and the effects of organ culture with doses of ALA in the 10-100 μM concentration range on contractile function, and minimizing the duration of organ culture were considerations that contributed to selecting the 24 h culture period used in this study.
Studies on the Regulation of Contractile Function. Following the overnight incubation, arterial rings were mounted on wire hooks attached to Grass (FT03) force displacement transducers for measurement of changes in isometric force. Tension was adjusted to 5 g, which is the optimal passive force for maximal contraction. Changes in force were recorded on a Grass polygraph (model 7), while vessels were incubated in 10-ml baths (Metro Scientific), which were individually thermostated (37° C.) in Krebs buffer gassed with 21% O2-5% CO2 (balance N2) in the absence of compounds used to modulate BPA protoporphyrin IX levels. Arteries were incubated for 1 h during which passive tension was adjusted to maintain 5 grams. The vessels were then depolarized with Krebs containing 123 mM KCl (High K^+) in place of NaCl, followed by re-equilibration with Krebs, prior to exposure to the experimental protocols. Following the wash with Krebs buffer after the High K^+ treatment, and a 30 min equilibration, BPA were then contracted with serotonin (5-HT) in a dose dependent manner to determine the response to this contractile agent. In some experiments, BPA were pretreated with the sGC inhibitor, 10 μM ODQ, for 15 min before contraction with serotonin. The effects of ODQ on relaxation to NO was determined by first contracting organ cultured control and ODQ-treated BPA with 1 μM 5-HT (after the initial exposure to increasing concentrations of 5-HT and a 30 min equilibration in Krebs).

[4] = tested on: bovine pulmonary arteries (BPA); experiment: Protoporphyrin IX-associated tissue fluorescence in organ cultured BPA rings; format: cell-based
Description: as §1
Determination Changes in Protoporphyrin 1× and Heme Levels. Methods for the detection of protoporphyrin IX tissue fluorescence developed for the detection in cancerous cells with tissue depths of up to several millimeters (27) were adapted for detecting changes in the endogenous levels of protoporphyrin IX in BPA rings which were organ cultured with ALA. When excited with light in the regions of 505 and 540 nm, protoporphyrin IX has an emission in the region of 635 nm. […] Increases in protoporphyrin IX were measured using an excitation wavelength of 528±20 nm and emission of 620±40 nm in intact vessels. Ring segments of approximately equal size (˜4 mm in diameter and length) were centered on the bottom of the ˜6 mm diameter wells of a 96 well microplate with 200 μl of Krebs containing with 10 mM Hepes buffer (pH 7.4), and the fluorescence was measured from the bottom surface of the plate using BIOTEK fluorescent microplate reader (Model FLx800i). Data are reported in the arbitrary fluorescence units measured (AU), after subtraction of the low levels of background fluorescence observed in the absence of BPA.

[5] = tested on: VASP serine-239 phosphorylation (cGMP-dependent protein kinase activation); experiment: Western blot of VASP serine-239 phosphorylation in BPA; format: cell-based, bovine
Description: Rings from studies on contractile function were snap-frozen in liquid nitrogen, crushed and homogenized in lysis buffer (50 mM Tris-HCl, pH 8.0, 150 mM NaCl, 1 mM EDTA, 1% Triton X-100, 0.5% sodium deoxycholate, 0.1% sodium dodecyl sulfate, 1% of a protease inhibitor cocktail (Sigma) and 1% of a phosphatase inhibitor cocktail (Sigma). The protease inhibitor cocktail included 4-(2-aminoethyl)benzenesulfonyl floride hydrocholride, aprotinin, bestatin hydrochloride, N-(trans-epoxsuccinyl)-L-leucine-4-guanidinobutylamide, leupeptine hemisulfate, pepstatin and the phosphatase inhibitor cocktail included sodium orthovandate, sodium molybdate, sodium tartarate, and imidazole. Protein concentration was determined and 30 μg of protein samples were prepared in electrophoresis sample buffer containing 3% SDS and 3% β-mercaptoethanol and were separated using a 12% gel SDS-PAGE electrophoresis. Membranes were blocked for 1 h in TBST-5% milk and incubated overnight with phospho-VASP antibodies (diluted 1:1000). Membranes were exposed to a secondary horse radish peroxidase linked antibody and visualized with an ECL kit (Amersham). The membranes were subsequently exposed to X-OMAT autoradiography paper (Kodak). Membranes were stripped with TRIS-HCl buffer with 100 mM β-mercaptoethanol at 50° C. for 30 min. Membranes were subsequently washed, blocked and detected for total VASP. Each measurement of phosphorylated VASP was normalized to the total level of VASP, and data are reported as the percent of the levels of phosphorylated VASP seen in control arteries not exposed to agents which modulate the activity of sGC. Expression of sGC was detected with β-sGC subunit antibodies (diluted 1:2000), employing anti-rabbit secondary antibodies, and a protocol where membranes were blocked for 2 h. After analyzing for sGC protein expression, blots were stripped and re-probed for the detection of α-actin protein levels, which were used for normalization of data for statistical analysis based on protein loading.

[6] = tested on: bovine airways; experiment: Superoxide detection by lucigenin chemiluminescence in bovine airways; format: cell-based; details: 10 μM PDBu for 30 minutes
Description: Bovine bronchi were isolated from the same lungs used for pulmonary arteries, and studied for changes in protoporphyrin IX fluorescence and force under the same conditions as bovine pulmonary arteries described above. Superoxide was detected by the chemiluminescence produced by 5 μM lucigenin, which was detected by photon counting in a scintillation counter.

[7] = biological target: T1, sGC; details: reference (34), cited from earlier work
[8] = biological target: T2, sGC purified from bovine lungs (Bos taurus, UniProt P16068); details: reference (34); cited from earlier work
T2 construct: host or cells: bovine lung
T2 sequence (P16068 1-619): T1 sequence (P16068 1-619)
T2 sequence (P19687 1-691 partner): T1 sequence (P19687 1-691 partner)

[9] = 100 μM Fe in the presence of 100 μM ALA
[10] = organ culture with 100 μM Fe alone
[11] = 10 μM ODQ on BPA organ cultured with 100 μM ALA

In the case of `O=S(=O)([O-])[O-].[Fe+2]` [Fe, FeSO4], the BPA heme levels [1] was “did not reach statistical significance”, the “BPA homogenate sGC activity” value [2] was “did not alter sGC activity” and the “force generation by 5-HT” value [3, 9] was “reversed the force attenuating effects”. For the same molecule, the “force generation by 5-HT” value [3, 10] was “did not alter force generation”, the “protoporphyrin IX fluorescence” value [4, 9] was “reversed the increase in protoporphyrin IX fluorescence” and the “background fluorescence of BPA” value [4, 10] was “did not alter the background fluorescence”.

For `O=c1onc2cnc3ccccc3n12` [ODQ, 1H-[1,2,4]oxadiazolo[4,3-α]quinoxalin-1-one], the “force generation to 5-HT” value ([3]; 10 μM ODQ alone) was “did not alter”, the “decrease in contraction to 5-HT caused by ALA” value [3, 11] was “did not alter” and the “relaxation to the NO donor” value ([3]; pretreatment with 10 μM ODQ, 10 μM spermine-NONOate) was “markedly attenuated relaxation”. The “VASP serine-239 phosphorylation” value ([5]; 10 μM ODQ alone, appeared to decrease) was “did not reach statistical significance”, the “increase in VASP serine-239 phosphorylation caused by ALA” value [5, 11] was “did not significantly alter the increase in serine-239 VASP phosphorylation” and the “increase in VASP serine-239 phosphorylation caused by the NO donor” value ([5]; 10 μM ODQ with 10 μM spermine-NONOate) was “attenuate the increase caused by the NO donor”.

With `CCCC(=O)O[C@@H]1[C@@H](C)[C@@]2(O)[C@@H](C=C(CO)C[C@]3(O)C(=O)C(C)=C[C@@H]23)[C@@H]2C(C)(C)[C@]12OC(=O)CCC` [PDBu] the “superoxide detected by 5 μM lucigenin chemiluminescence” value [6] was “causes an increase in superoxide”.

In the case of `C=CC1=C(C)c2cc3[n-]c(cc4[n-]c(cc5nc(cc1n2)C(C)=C5C=C)c(C)c4CCC(=O)O)c(CCC(=O)O)c3C.[Fe+2]` [heme], the pKd ([7]; read-out: binding affinity for the binding site on sGC) is given as ~6.46 and the “effect on activation of sGC by protoporphyrin IX” value [8] is given as “competitive inhibitor”.

In the case of `C=CC1=C(C)c2cc3[nH]c(cc4nc(cc5[nH]c(cc1n2)c(C)c5CCC(=O)O)C(CCC(=O)O)=C4C)c(C)c3C=C` [protoporphyrin IX], the “binding affinity for the binding site on sGC” value [7] is listed as “low nanomolar concentration range”.

In the case of `NCCCNCCCCN(CCCN)/[N+]([O-])=N/O` [spermine-NONOate], the “relaxation of organ cultured BPA” value ([3]; 10 μM spermine-NONOate) was “relaxed” and the “VASP serine-239 phosphorylation” value ([5]; 10 μM spermine-NONOate) was “increased VASP phosphorylation”.
